These results are taken from US8778966B2, “Quinolinone derivatives as PARP and tank inhibitors” (Janssen Pharmaceutica, NV, priority 2007, dated 2014).

One assay addresses T1, Human PARP-1 enzyme (Homo sapiens, UniProt P09874).
T1 construct: purchased Trevigen
Kind of assay: In vitro Scintillation Proximity Assay (SPA) for PARP-1 inhibitory activity. It is filed as biochemical. The conditions noted are these: read-out: in vitro SPA assay PARP-1 pIC50 (converted). The method, boiled down: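 SPA assay: nicked-DNA-activated PARP-1 (0.1–0.2 μg/ml) ADP-ribosylates biotinylated histones (2 μg/ml) using [3H]-NAD+, 20 min at RT in Tris pH 8/DTT/MgCl2, stopped with 2 mM NAD+. Blank-subtracted cpm expressed as % control; IC50 by linear interpolation, reported as pIC50 (10−5 to 3×10−9 M tested).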

Another assay relates to HCT116 cells. Briefly: Mitotic arrest assay on HCT116 cells (phospho-histone H3 Ser10). The format is cell-based, human. The conditions noted are these: Homo sapiens, HCT-116, HCT116 cells; lowest active dose; read-out: Mitotic arrest HCT116 LAD (converted). In outline: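 Seeded overnight, then compound-treated 6 h at 37 °C (≤0.1% DMSO); fixed, stained with Alexa Fluor 488 anti-phospho-H3 (Ser10) plus Hoechst 33342, imaged on InCell Analyzer 1000. Blank-subtracted signal divided by SD (sigma), triplicate; value is lowest dose giving sigma >5 (LAD).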

T1 sequence (P09874 whole entry): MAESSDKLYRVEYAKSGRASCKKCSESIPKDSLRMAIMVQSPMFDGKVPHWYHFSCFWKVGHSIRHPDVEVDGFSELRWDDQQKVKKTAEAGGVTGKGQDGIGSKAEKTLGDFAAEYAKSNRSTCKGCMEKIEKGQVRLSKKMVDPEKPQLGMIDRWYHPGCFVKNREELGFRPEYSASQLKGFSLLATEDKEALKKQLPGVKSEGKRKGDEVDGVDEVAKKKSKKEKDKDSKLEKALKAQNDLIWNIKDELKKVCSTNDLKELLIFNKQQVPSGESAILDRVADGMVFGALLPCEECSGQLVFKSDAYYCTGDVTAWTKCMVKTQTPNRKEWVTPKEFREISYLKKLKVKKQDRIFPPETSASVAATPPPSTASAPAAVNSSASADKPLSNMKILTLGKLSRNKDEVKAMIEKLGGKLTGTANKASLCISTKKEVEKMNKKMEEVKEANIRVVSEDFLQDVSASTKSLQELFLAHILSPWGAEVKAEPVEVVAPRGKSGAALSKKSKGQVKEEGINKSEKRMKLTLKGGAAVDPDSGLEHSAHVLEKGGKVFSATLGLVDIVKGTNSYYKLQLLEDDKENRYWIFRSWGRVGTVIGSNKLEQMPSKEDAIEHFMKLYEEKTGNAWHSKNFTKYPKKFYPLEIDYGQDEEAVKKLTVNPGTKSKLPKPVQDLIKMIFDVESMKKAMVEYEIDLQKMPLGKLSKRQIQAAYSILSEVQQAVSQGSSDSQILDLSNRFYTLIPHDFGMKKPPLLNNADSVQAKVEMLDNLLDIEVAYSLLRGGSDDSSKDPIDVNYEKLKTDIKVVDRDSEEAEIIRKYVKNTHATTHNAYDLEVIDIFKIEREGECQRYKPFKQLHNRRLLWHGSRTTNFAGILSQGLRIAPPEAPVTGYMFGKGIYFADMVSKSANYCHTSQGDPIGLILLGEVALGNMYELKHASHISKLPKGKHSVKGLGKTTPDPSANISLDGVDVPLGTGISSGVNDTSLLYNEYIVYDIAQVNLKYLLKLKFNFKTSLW

Regarding `CCc1cc2ccc(C(C)(C#N)Cc3cc(C#N)nc(C)n3)cc2[nH]c1=O` (stereo not drawn) [Compound 319], the IC50 on Human PARP-1 enzyme was 200 nM. Moreover, in the assay on HCT116 cells, the minimal effective concentration is 0.3 µM.
On to `CCc1cc2ccc(C(C)(C#N)Cc3cc(N(C)C)nc(N(C)C)n3)cc2[nH]c1=O` (stereo not drawn) [Compound 320], for which the IC50 on Human PARP-1 enzyme is 200 nM. For the same molecule, the minimal effective concentration with HCT116 cells is 0.3 µM.
On the same counts, the results for `CCc1cc2ccc(C(C)(C#N)Cc3cc(N(C)C)nc(C)n3)cc2[nH]c1=O` (stereo not drawn) [Compound 322] are 200 nM and 1 µM.
Turning to `CCc1cc2ccc(C(C)(C#N)Cc3cc(Cl)nc(N(C)C)c3)cc2[nH]c1=O` (stereo not drawn) [Compound 323], at Human PARP-1 enzyme, the IC50 was 79.4 nM. Also, in the assay with HCT116 cells, the minimal effective concentration was 0.3 µM.
For `CCc1cc2ccc(C(C)(C#N)Cc3cccc(NC)n3)cc2[nH]c1=O` (stereo not drawn) [Compound 339] the same measures were 39.8 nM and 1 µM.
On the same counts, the results for `CCc1cc2ccc(C(C)(C#N)Cc3ccc4c(c3)OC(F)(F)O4)cc2[nH]c1=O` (stereo not drawn) [Compound 346] are 79.4 nM and 1 µM.
For `CCc1cc2ccc(C(C)(C#N)Cc3cc(Cl)nc(OC)c3)cc2[nH]c1=O` (stereo not drawn) [Compound 351] the same measures were 63.1 nM and 0.1 µM.
Turning to `CCc1cc2ccc(C(C)(C#N)Cc3cc(N(C)C)nc(OC)n3)cc2[nH]c1=O` (stereo not drawn) [Compound 354], the IC50 on Human PARP-1 enzyme was 79.4 nM. For the same molecule, the minimal effective concentration in the assay on HCT116 cells was 1 µM.
For `CCc1cc2ccc(C(C)(C#N)Cc3nc(OC)cc(N(C)C)n3)cc2[nH]c1=O` (stereo not drawn) [Compound 355] the same measures were 50.1 nM and 0.1 µM.
For `CCc1cc2ccc(C(C)(C#N)Cc3cc(Cl)nc(C)n3)cc2[nH]c1=O` (stereo not drawn) [Compound 365], the IC50 on Human PARP-1 enzyme was 126 nM. The minimal effective concentration in the assay on HCT116 cells is 0.3 µM.
On to `CCc1cc2ccc(C(C)(C#N)CN3CCC(c4ccccc4)CC3)cc2[nH]c1=O` (stereo not drawn) [Compound 375], for which the IC50 on Human PARP-1 enzyme is 158 nM. In addition, the minimal effective concentration with HCT116 cells is 0.3 µM.
Regarding `CCc1cc2ccc(C(C)(C#N)CN3CCN(c4ccc(C#N)cn4)CC3)cc2[nH]c1=O` (stereo not drawn) [Compound 377], on Human PARP-1 enzyme, the IC50 was 50.1 nM. Also, in the assay on HCT116 cells, the minimal effective concentration is 0.3 µM.
For `CCc1cc2ccc(C(C)(C#N)Cc3cc(Br)cc4c3OCC4)cc2[nH]c1=O` (stereo not drawn) [Compound 378] the same measures were 79.4 nM and 0.1 µM.
With `CCc1cc2ccc(C(C)(C#N)Cc3cccc4[nH]ccc34)cc2[nH]c1=O` (stereo not drawn) [Compound 379], the IC50 at Human PARP-1 enzyme was 25.1 nM. Besides, in the assay with HCT116 cells, the minimal effective concentration is 0.3 µM.
On the same counts, the results for `Cc1cc2ccc([C@](C)(C#N)[C@H]3CCc4ccccc43)cc2[nH]c1=O` [Compound 387] are 200 nM and 3 µM.
For `Cc1cc2ccc(C(C)(C#N)C3CCc4ccccc43)cc2[nH]c1=O` (stereo not drawn) [Compound 392] the same measures were 126 nM and 0.3 µM.
For `Cc1cc2ccc(C(C)(C#N)C3CCCc4ccccc43)cc2[nH]c1=O` (stereo not drawn) [Compound 404] the same measures were 200 nM and 1 µM.
`Cc1cc2ccc(C(C)(C#N)Cc3cccc(/C=C/CCO)c3)cc2[nH]c1=O` (stereo not drawn) [Compound 409]: the IC50 on Human PARP-1 enzyme was 100 nM. For the same molecule, the minimal effective concentration in the assay with HCT116 cells was 0.3 µM.
